Data taken from patent US6734204B1, “Serotonin potentiation by oleamide analogs” (The Scripps Research Institute, priority 1998, dated 2004).
Entries after “also recorded” stand apart in the source; their conditions may differ. Read-outs that look alike come from different tables or passages of the source.

Columns and labels:
[1] = target: T1, rat 5-HT2A receptor (Rattus norvegicus, UniProt P14842); assay: R-SAT assay, NIH 3T3 cells expressing the rat 5-HT2A receptor, β-galactosidase readout; assay type: cell-based; conditions: agent 500 nM, 100 nM 5-HT, compared with oleamide
T1 construct: host or cells: NIH 3T3 cells, cotransfected with the beta-galactosidase gene
Description: (§1) Activation of the 5-HT2A or 5-HT1A receptors in 5-HT dependent cell lines results in cell prolification measured by the levels of -galactosidase produced.
(§2) An extensive series of agents was tested at 500 nM for their ability to potentiate the rat 5-HT2A or human 5-HT1A receptor response to 100 nM 5-HT. […] The analog screening was conducted with the rat 5-HT2A assay and a subset of analogs was also examined in the human 5-HT1A assay. The results reported are normalized to a 100% potentiation by oleamide for the ease of direct comparisons.
(§3) Methods. The assays were conducted with R-SAT kits (Receptor Technologies Inc, Winooski, Vt.) containing NIH 3T3 cells expressing the rat 5-HT2A receptor (Suter et al. (1987) Fundam. Appl. Toxicol. 9, 785-794; Pritchett et al. (1988) EMBO J 7, 4135-4140) or RAT-1 cells expressing the human 5-HT1A receptor (Lam et al. (1996) Biochem. Biophys. Res. Commun. 219, 853-858; Kobilka et al. (1987) Nature 329, 75-79) cotransfected with the -galactosidase gene and were performed according to the procedures provided (Messier et al. (1995) Pharmacol. Toxicol. 76, 308-311; Brann et al. (1996) J. Biomol. Screening 1, 43-45). The cells in Dulbecco modified Eagle's medium containing serotonin (100 nM) and the analogs (500 nM) were incubated in a humidified 5% CO2 incubator at 37° C. for 4 or 5 days for the 5-HT2A and 5-HT1A transfected cells, respectively. Levels of -galactosidase were measured after incubation with the chromogenic substrate o-nitrophenyl- -D-galactopyranoside (20) at 30° C. in a humidified incubator for a recommended period of time and the absorbance was measured at 405 nm. The results were normalized to 100% for oleamide (rel. % potentiation) for the ease of comparison and are the average of 2-8 determinations.

[2] = target: T2, human 5-HT1A receptor (Homo sapiens, UniProt P08908); assay: R-SAT assay, RAT-1 cells expressing the human 5-HT1A receptor, β-galactosidase readout; assay type: cell-based; conditions: agent 500 nM, 100 nM 5-HT, compared with oleamide
T2 construct: host or cells: RAT-1 cells, cotransfected with the beta-galactosidase gene
T2 sequence (P08908 1-422): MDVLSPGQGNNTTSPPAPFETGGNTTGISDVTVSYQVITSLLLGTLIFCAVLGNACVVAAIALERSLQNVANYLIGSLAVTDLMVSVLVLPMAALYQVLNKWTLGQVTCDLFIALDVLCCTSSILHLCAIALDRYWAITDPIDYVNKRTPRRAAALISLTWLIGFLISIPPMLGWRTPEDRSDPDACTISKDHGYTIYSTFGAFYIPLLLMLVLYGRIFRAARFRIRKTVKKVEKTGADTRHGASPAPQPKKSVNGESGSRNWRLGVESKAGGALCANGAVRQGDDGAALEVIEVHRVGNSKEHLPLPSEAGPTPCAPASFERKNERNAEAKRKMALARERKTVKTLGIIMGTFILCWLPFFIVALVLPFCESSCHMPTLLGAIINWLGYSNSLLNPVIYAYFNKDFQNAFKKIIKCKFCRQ
Description: as §1, §2, §3

[3] = target: T2, human 5-HT1A receptor; assay: as above; assay type: cell-based; conditions: for potentiation: 100 nM 5-HT
[4] = target: T3, 5-HT2A receptor (Homo sapiens, UniProt P28223); conditions: 100 nM serotonin, 100 nM oleamide; Huidobro-Toro et al. 1996; cited from earlier work
T3 construct: host or cells: frog oocytes, transfected

[5] = target: T4, 5-HT2A receptors (Rattus norvegicus, UniProt P14842); conditions: 100 nM serotonin, 100 nM oleamide; Thomas et al. 1997; cited from earlier work
T4 construct: rat pituitary P11 cells expressing the 5-HT2 receptor; endogenous in cells; host or cells: rat pituitary P11 cells

[6] = target: T5, 5-HT2C receptor (Homo sapiens, UniProt P28335); conditions: cited from earlier work
T5 construct: host or cells: frog oocytes, transfected
T5 sequence (P28335 33-458): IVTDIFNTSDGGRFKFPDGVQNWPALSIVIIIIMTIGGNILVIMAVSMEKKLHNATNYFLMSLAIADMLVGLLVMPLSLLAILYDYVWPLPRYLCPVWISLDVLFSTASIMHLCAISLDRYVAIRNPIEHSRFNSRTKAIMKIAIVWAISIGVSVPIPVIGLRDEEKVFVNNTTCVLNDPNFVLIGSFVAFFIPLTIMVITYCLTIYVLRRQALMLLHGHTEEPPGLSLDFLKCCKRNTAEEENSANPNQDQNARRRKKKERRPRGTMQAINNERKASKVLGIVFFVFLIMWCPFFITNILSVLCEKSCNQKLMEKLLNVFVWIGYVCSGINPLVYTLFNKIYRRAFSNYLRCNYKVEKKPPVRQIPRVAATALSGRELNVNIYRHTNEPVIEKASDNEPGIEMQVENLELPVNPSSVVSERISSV

[7] = target: T6, 5-HT3 ion-gated channel receptor (Homo sapiens, UniProt P46098); conditions: 100 nM serotonin, 100 nM oleamide; cited from earlier work
T6 construct: host or cells: frog oocytes, transfected
T6 sequence (P46098 24-478): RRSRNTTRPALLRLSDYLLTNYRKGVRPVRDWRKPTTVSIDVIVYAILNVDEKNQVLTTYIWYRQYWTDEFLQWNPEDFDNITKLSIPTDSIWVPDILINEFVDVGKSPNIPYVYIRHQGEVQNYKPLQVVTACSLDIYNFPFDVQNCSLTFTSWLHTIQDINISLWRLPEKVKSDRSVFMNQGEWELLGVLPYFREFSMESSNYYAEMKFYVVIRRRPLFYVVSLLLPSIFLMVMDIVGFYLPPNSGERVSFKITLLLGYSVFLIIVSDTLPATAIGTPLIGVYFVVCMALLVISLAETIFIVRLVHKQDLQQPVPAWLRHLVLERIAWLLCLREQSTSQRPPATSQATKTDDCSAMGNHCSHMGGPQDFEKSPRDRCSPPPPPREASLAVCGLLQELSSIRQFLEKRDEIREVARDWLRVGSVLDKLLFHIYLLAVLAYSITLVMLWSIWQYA

[8] = target: T1, rat 5-HT2A receptor; assay: R-SAT assay, NIH 3T3 cells expressing the rat 5-HT2A receptor, β-galactosidase readout; assay type: cell-based; conditions: for potentiation response: 100 nM oleamide
[9] = target: T7, 5-HT7 receptor (Homo sapiens, UniProt P34969); conditions: cited from earlier work
T7 construct: host or cells: HeLa cells, transfected

[10] = tested on: FAAH; conditions: cited from earlier work

T1 sequence (P14842 whole entry): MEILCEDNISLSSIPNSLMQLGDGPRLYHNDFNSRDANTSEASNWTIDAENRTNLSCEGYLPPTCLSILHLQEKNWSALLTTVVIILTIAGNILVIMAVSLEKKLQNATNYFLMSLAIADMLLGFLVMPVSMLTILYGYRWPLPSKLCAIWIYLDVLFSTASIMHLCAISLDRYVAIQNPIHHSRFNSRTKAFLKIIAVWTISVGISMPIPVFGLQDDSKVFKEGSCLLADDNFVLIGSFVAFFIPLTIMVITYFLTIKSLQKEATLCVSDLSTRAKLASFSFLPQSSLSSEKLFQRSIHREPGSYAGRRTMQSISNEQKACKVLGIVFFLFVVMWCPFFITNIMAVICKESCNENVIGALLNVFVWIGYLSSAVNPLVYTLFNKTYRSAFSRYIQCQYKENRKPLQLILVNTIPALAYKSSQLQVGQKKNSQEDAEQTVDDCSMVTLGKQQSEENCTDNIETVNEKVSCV
T7 sequence (P34969 whole entry): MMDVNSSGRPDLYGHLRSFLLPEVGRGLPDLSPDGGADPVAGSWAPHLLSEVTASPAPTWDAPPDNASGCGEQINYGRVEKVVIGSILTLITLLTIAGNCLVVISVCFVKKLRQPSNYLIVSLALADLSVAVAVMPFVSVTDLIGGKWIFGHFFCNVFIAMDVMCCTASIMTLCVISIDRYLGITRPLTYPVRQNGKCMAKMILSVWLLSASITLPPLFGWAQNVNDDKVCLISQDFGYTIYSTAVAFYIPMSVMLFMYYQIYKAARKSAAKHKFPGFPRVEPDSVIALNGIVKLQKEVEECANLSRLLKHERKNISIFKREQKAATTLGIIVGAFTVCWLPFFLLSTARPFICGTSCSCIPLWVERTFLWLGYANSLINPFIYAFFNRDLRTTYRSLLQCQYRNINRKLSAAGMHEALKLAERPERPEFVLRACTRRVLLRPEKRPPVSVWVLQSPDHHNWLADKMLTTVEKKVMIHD
T4 sequence (P14842 whole entry): as the sequence (P14842 whole entry) above
T3 sequence (P28223 whole entry): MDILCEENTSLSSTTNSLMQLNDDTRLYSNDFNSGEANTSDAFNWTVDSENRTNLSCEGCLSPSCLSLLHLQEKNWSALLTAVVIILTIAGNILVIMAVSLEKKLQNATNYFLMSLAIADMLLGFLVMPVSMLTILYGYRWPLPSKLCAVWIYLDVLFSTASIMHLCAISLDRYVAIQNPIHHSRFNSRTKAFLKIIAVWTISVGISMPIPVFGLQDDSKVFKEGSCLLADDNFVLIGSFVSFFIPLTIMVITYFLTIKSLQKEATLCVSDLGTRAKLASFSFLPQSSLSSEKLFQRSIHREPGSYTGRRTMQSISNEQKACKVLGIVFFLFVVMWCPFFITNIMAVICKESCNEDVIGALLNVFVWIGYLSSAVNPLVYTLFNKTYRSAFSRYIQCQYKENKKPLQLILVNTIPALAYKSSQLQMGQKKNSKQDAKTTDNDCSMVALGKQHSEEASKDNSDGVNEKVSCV

SMILES | potentiation of the 5-HT2A receptor response (in words) [1] | potentiation of the 5-HT1A receptor response (in words) [2] | also measured
CCCCCCCC/C=C\CCCCCCCCOCC(CO)OC(C)=O (stereo not drawn) [1-oleyl-2-acetylglycerol] | weakly inhibited |  | 
CCCCCCCC/C=C\CCCCCCC(C)(C)C(N)=O [2,2-dimethyloleamide] | potent inhibitors |  | 
CCCC/C=C\CCCCCCCC(N)=O [14:1^9, Myristoleamide] |  | more effective on the 5-HT1A receptor than 5-HT2A | 
CCCCCC/C=C\CCCCCCCC(N)=O [16:1^9, Palmitoleamide] |  | approaching the potency of oleamide | 
CCCCCCCCCCCCCCCCCC(N)=O [18:0, stearamide] | no observable potentiation; also recorded: ineffective at potentiating | less effective than oleamide, albeit not inactive | 
CCCCCCCC/C=C/CCCCCCCC(N)=O [18:1^9-trans, Elaidamide] | no observable potentiation; also recorded: ineffective at potentiating | less effective than oleamide, albeit not inactive | 
CCCCC/C=C\C/C=C\CCCCCCCC(N)=O [18:2^9,12, Linoleamide] |  | approaching the potency of oleamide | 
CC/C=C\C/C=C\C/C=C\CCCCCCCC(N)=O [18:3^6,9,12, linolenamide] | more effective but still less potent |  | 
CCCCCCCCCCCCCC/C=C\CCCC(N)=O [20:1^5] |  |  | potentiation of the 5-HT2A receptor response (in words) ([1]; listed as 20:1^9): inactivity; potentiation of the 5-HT2A receptor response (in words) ([1]; listed as 20:1^13): modest activity
CCCCCCCC/C=C\CCCCCCCCCCCCCC(N)=O [24:1^9, Nervonamide] | modest activity |  | 
CCCCC/C=C\C/C=C\C/C=C\C/C=C\CCCC(N)=O [Arachidonamide] | ineffective |  | potentiation of the 5-HT2A receptor response (in words) ([1]; listed as arachidonamide): less active or ineffective
CCCCCCCCC#CCCCCCCCC(N)=O [Compound 2, 9-octadecynamide] | nearly equipotent with oleamide |  | 
CCCCCCCC/C=C\CCCCCCCC(=O)NCC(=O)O [N-oleyl glycine, N-Oleoyl glycine] |  | weak potentiator | 
CCCCCCCCC=CCCCCCCCC(=O)N(C)C [NMe2 tertiary amide] | maximum effect |  | 
CCCCC/C=C\C/C=C\C/C=C\C/C=C\CCCC(=O)NCCO [anandamide, reference compound] | weakly inhibitory; also recorded: less active or ineffective | found to potentiate | 
CCCCCCCC/C=C\CCCCCCCC(=O)NC1CC1 [cyclopropyl amide] | uniquely effective at inhibiting; also recorded: inactive or inhibitory | effective at potentiating | 
CCCCCCCCC=CCCCCCCCC(=O)NC(C)C [isopropyl amide] | inactive or inhibitory | effective at potentiating | 
CCCCCCCC/C=C\CCCCCCCC(N)=O [oleamide, cis-9-ocatadecenamide] | most effective |  | potentiation ([3]; 100 nM oleamide): 370%; potentiation ([3]; 1 μM oleamide): 560%; lowest concentrations producing a measurable effect ([3]; with 5-HT): 1 to 10 nM; effect of treatment alone ([3]; without 5-HT): no effect; potentiation of 5-HT2A [4]: 260%; potentiation of 5-HT2A [5]: 228%; potentiation of 5-HT2C ([6]; 100 nM serotonin, 100 nM oleamide): 365%; concentration of maximal potentiation [6]: 100 nM; lowest concentration at which potentiation was observed [6]: 1 nM; effect on 5-HT3 receptor [7]: no effect; potentiation response ([8]; 100 nM 5-HT): 165%; potentiation response ([8]; 1 μM 5-HT): 170%; potentiation at higher concentration ([8]; 1 μM oleamide): no additional potentiation; concentration giving maximal response ([8]; assayed at 100 nM or 1 μM 5-HT): 100 nM; effect of treatment alone ([8]; without 5-HT): no effect; action at the 5-HT7 receptor ([9]; alone): weak agonist; action at the 5-HT7 receptor ([9]; in the presence of serotonin): unsurmountable antagonist
CCCCCCCC/C=C\CCCCCCCC(=O)O [oleic acid, Oleic acid, reference compound] | did not provide a comparable potentiation | better tolerated | 
CCCCCCCC/C=C\CCCCCCCC=O [oleyl aldehyde] |  |  | inhibition of FAAH (in words) [10]: potent inhibitors
CCCCCCCC/C=C\CCCCCCCC(=O)NCCO [oleyl ethanolamide] | less active or ineffective | found to potentiate | 
CCCCCCCC/C=C\CCCCCCCC(=O)NCCCO [oleyl propanolamide] |  | equally effective | 
